Test results as given in patent US20040175691A1, “Use of the KCNQ2 and KCNQ3 genes for the discovery of agents useful in the treatment of neurological disorders” (priority 1998, published 2004).

Legend:
hKCNQ2 potassium channel = target: T1, hKCNQ2 potassium channel (Homo sapiens, UniProt O43526, DEL417-446); assay: Membrane potential-evoked fluorescence (FLIPR, DiBAC) in HEK 293E cells stably expressing hKCNQ2; assay type: cell-based; conditions: FIG. 7
T1 construct: Full-length hKCNQ2 cDNAs were amplified from adult human brain cDNA; expressed in transfected cells; host or cells: 293 EBNA (HEK 293E) cells, episomal plasmid pm3AR-hKCNQ2-1, hygromycin B selection
Method: The ability of KCNQ2 modulators to alter membrane potential was assessed using a fluorescence imaging plate reader (FLIPR). Cultured HEK 293E cells expressing hKCNQ2 channels are plated on poly-D-lysine-coated 96-well Costar microplates (#3603) at 300,000-750,000 cells/ml and allowed to reach confluence in DMEM (with 10% FBS and 250 ug/ml hygromycin B) at 37° C. and 5% CO2. After reaching confluence, growth medium is removed, replaced with a standard Hank's balanced salt solution containing 5 uM dibac(4)3, bis-oxonol (Molecular Probes # B-438) at 37° C. The cell plate is then placed in the recording chamber (equilibrated to 37° C.) of a fluorescence imaging plate reader (FLIPR; Molecular Devices) along with two drug plates (one containing standard Hank's balanced salt solution+dibac and the other containing standard Hank's balanced salt solution+dibac+test compound at various experimental concentrations).
These cells were loaded with the voltage-sensitive fluorescent dye, DiBAC, that distributes across cell membranes in a voltage-dependent manner. As cells depolarize (become more positive inside), more dye enters the cells and an increase in fluorescence occurs.
In FIG. 7, the relative effects of several M-current modulators on the flourescence of HEK 293E cells stably expressing the hKCNQ2 potassium channel is shown. These cells were loaded with the voltage-sensitive fluorescent dye, DiBAC, that distributes across cell membranes in a voltage-dependent manner. As cells depolarize, more dye enters the cells and an increase in fluorescence occurs. Conversely, as cells hyperpolarize (become more negative inside), more dye leaves the cells and a decrease in fluorescence occurs.

M-current = target: T2, M-current (Rattus norvegicus, UniProt O88943+O88944); assay: Blockade of native M-current in SCG neurons (voltage clamp, intact ganglia); assay type: cell-based; conditions: rat sympathetic neurons; read-out: KD for TEA blockade of native M-current
T2 construct: from tissue
Method: Method: Recordings of the M-current in sympathetic neurons in intact ganglia were performed at room temperature as described previously (Wang and McKinnon, 1995). The standard extracellular recording solution was: NaCl (133 mM, KCl (4.7 mM), NaH2PO4 (1.3 mM), NaHCO3 (16.3 mM), CaCl2 (2 mM), MgCl2 (1.2 mM) and glucose (1.4 g/liter), bubbled with 95% O2-5% CO2 to give pH 7.2-7.4.
A. Blockade of M-current in SCG neurons by XE991. Holding potential was −30 mV and step potential was −50 mV for 1 second. The shift in holding current following drug application is due to the inhibition of M-current activated at the holding potential.
Maximal block of native M-current was 93±2%. Data points are averages and error bars represent s.e.m.

KCNQ2 + KCNQ3 = target: T3, KCNQ2 + KCNQ3 (UniProt O43526+O88944, DEL417-446); assay: Blockade of KCNQ2+KCNQ3 channels expressed in Xenopus oocytes; assay type: cell-based, human KCNQ2, rat KCNQ3
T3 construct: Full-length KCNQ2 cDNAs were amplified from adult human brain cDNA; Multiple full-length cDNA clones were amplified in independent PCR reactions from rat SCG cDNA; expressed in transfected cells; host or cells: Xenopus oocytes injected with cRNA
Method: (§1) Method: Full-length KCNQ2 cDNAs were amplified from adult human brain cDNA using the following primers ([…], […]) with the Expand Fidelity enzyme mixture (Boehringer Mannheim, Indianapolis). […] This region is also alternatively spliced in the KCNQ2 cDNA clone described by Biervert et al. (1998). Preparation, injection of cRNA and recording from oocytes was performed at room temperature as described previously (Dixon et al. 1996). The standard extracellular recording solution contained: 82 mM NaCl, 2 mM KCl, 1.8 mM CaCl2, 1 mM MgCl2, and 5 mM Na-HEPES (pH 7.6). Data collection and analysis were performed using pClamp software (Axon Instruments, Foster City, Calif.).
Holding potential was −60 mV and the cell was repetitively depolarized to −30 mV for 1 minute to reach steady-state blockade. Tail currents were recorded at −50 mV.
IC50 values are all expressed in μM, mean±s.e.m. In cases where the IC50 values were greater than 100 μM the exact value is not reported due to limited solubility in the drug.

KCNQ2 = KCNQ2 (Homo sapiens, UniProt O43526, DEL417-446); assay: Blockade of KCNQ2 channels expressed in Xenopus oocytes; assay type: cell-based; parameters: Full-length KCNQ2 cDNAs were amplified from adult human brain cDNA; expressed in transfected cells; host or cells: Xenopus oocytes injected with cRNA; conditions: homomultimeric KCNQ2, oocytes; Hill coefficient set to unity; read-out: KD for TEA block of KCNQ2 channels
Method: as §1
IC50 values are all expressed in μM, mean±s.e.m.

Structure (SMILES)	Relative effect on fluorescence / membrane potential (hKCNQ2 potassium channel; 3 μM)	Kd (M-current)	Kd (KCNQ2 + KCNQ3; co-injection of KCNQ2 and KCNQ3 mRNAs, read-out: KD for TEA block of KCNQ2+KCNQ3 channels)	Hill coefficient of TEA block of KCNQ2+KCNQ3 channels (KCNQ2 + KCNQ3; dose response fitted with Hill equation)	Kd (KCNQ2)	Relative effect on fluorescence / membrane potential (hKCNQ2 potassium channel; 100 μM)
O=C1c2ccccc2C(Cc2ccnc(F)c2)(Cc2ccnc(F)c2)c2ccccc21 [XR543]	more membrane depolarization than linopirdine	–	–	–	–	–
CC[N+](CC)(CC)CC [TEA, tetraethylammonium]	–	6.1 mM	3.5 ± 0.7 mM	0.82±0.03	0.16 ± 0.02 mM	–
Nc1ccc(CC2(Cc3ccc(N)cc3)C(=O)N(c3ccccc3)c3ccccc32)cc1 [X7315]	no effect	–	–	–	–	apparent membrane hyperpolarization
